Measurements: ChEMBL document CHEMBL1667805, “Synthesis of new C5-(1-substituted-1,2,3-triazol-4 or 5-yl)-2'-deoxyuridines and their antiviral evaluation” (Eur J Med Chem, 2011)
The source made the active and inactive calls. No cut-off for these calls is given here.

Key:
[1] = test system: Mammalian orthoreovirus 1; format: functional, organism-based; details: Vero
Sindbis virus = format: functional, organism-based; details: Vero
Punta Toro virus = format: functional, organism-based; details: Vero
Coxsackievirus B4 = format: functional, organism-based; details: HeLa
[2] = test system: Vesicular stomatitis virus; format: functional, organism-based; details: HeLa
[3] = test system: Human immunodeficiency virus 1; assay: Antiviral activity against HIV1 3B infected in human […] cells assessed as virus-induced CEM giant cell formation after 4 days; format: functional, organism-based
[4] = test system: Human immunodeficiency virus 2; assay: Antiviral activity against HIV2 ROD infected in human […] cells assessed as virus-induced CEM giant cell formation after 4 days; format: functional, organism-based; details: ISOLATE ROD
[5] = test system: Vesicular stomatitis virus; format: functional, organism-based; details: MDCK
Influenza A virus [6] = format: functional, organism-based; details: H1N1, MDCK
Influenza A virus [7] = format: functional, organism-based; details: H3N2, MDCK
Influenza B virus = format: functional, organism-based; details: MDCK
Human respirovirus 3 = format: functional, organism-based; details: Vero
L1210 = assay: cells; details: Mus musculus, L1210, 48 h
CCRF-CEM = assay: cells; details: Homo sapiens, 72 h
HeLa = assay: cells; details: Homo sapiens, 96 h
in vitro = details: human, HEL cells
Human alphaherpesvirus 1 [8] = assay: microbe, parasite or virus in culture; details: Human alphaherpesvirus 1, KOS, HEL
Human alphaherpesvirus 1 [9] = assay: microbe, parasite or virus in culture; details: Human alphaherpesvirus 1, KOS, HEL; remark: listed apart in the source
Human alphaherpesvirus 2 = assay: microbe, parasite or virus in culture; details: Human alphaherpesvirus 2, strain G, HEL
Human alphaherpesvirus 3 [10] = assay: microbe, parasite or virus in culture; details: Human alphaherpesvirus 3, strain Oka vaccine, HEL
Human alphaherpesvirus 3 [11] = assay: microbe, parasite or virus in culture; details: Human alphaherpesvirus 3, 07-1, HEL
Human betaherpesvirus 5 [12] = assay: microbe, parasite or virus in culture; details: Human betaherpesvirus 5, AD169, HEL
Human betaherpesvirus 5 [13] = assay: microbe, parasite or virus in culture; details: Human betaherpesvirus 5, Davis, HEL
Vaccinia virus = assay: microbe, parasite or virus in culture; details: Orthopoxvirus vaccinia, HEL

Compound	inhibition [1]	inhibition (Sindbis virus)	inhibition (Punta Toro virus)	inhibition (Coxsackievirus B4)	inhibition [2]	inhibition [3]	inhibition [4]	inhibition [5]	inhibition (Influenza A virus [6])	inhibition (Influenza A virus [7])	inhibition (Influenza B virus)	inhibition (Human respirovirus 3)	CC50 at 72 h (in vitro)	MCC at 72 h (in vitro)	EC50 (Human alphaherpesvirus 1 [8])	EC50 (Human alphaherpesvirus 1 [9])	EC50 (Human alphaherpesvirus 2)	EC50 (Human alphaherpesvirus 3 [10])	EC50 (Human alphaherpesvirus 3 [11])	EC50 (Human betaherpesvirus 5 [12])	also measured
CC(C)c1ccc(-n2cc(-c3cn([C@H]4C[C@H](O)[C@@H](CO)O4)c(=O)[nH]c3=O)nn2)cc1	inactive	inactive	inactive	inactive	inactive	inactive	inactive	inactive	inactive	inactive	inactive	inactive	7.4 µM	> 240 µM	> 10 µM	> 10 µM	> 10 µM	20 µM	97 µM	240 µM	IC50 (L1210): 29 µM; IC50 (CCRF-CEM): 22 µM; IC50 (HeLa): 6.2 µM; EC50 (Human betaherpesvirus 5 [13]): 185 µM; EC50 (Vaccinia virus): > 10 µM
O=c1[nH]c(=O)n([C@H]2C[C@H](O)[C@@H](CO)O2)cc1-c1cn(-c2ccc(Br)cc2)nn1	inactive	inactive	inactive	inactive	inactive	inactive	inactive	inactive	inactive	inactive	inactive	inactive	1 µM	≥ 44 µM	132 µM	132 µM	≥ 100 µM	2.6 µM	14 µM	45 µM	IC50 (L1210): 4.6 µM; IC50 (CCRF-CEM): 1.8 µM; IC50 (HeLa): 1.37 µM; EC50 (Human betaherpesvirus 5 [13]): 25 µM; EC50 (Vaccinia virus): 31 µM
O=c1[nH]c(=O)n([C@H]2C[C@H](O)[C@@H](CO)O2)cc1-c1cn(-c2ccc(OC(F)(F)F)cc2)nn1	inactive	inactive	inactive	inactive	inactive	inactive	inactive	inactive	inactive	inactive	inactive	inactive	47 µM	> 220 µM	> 50 µM	> 50 µM	> 50 µM	> 50 µM	> 50 µM	> 220 µM	IC50 (L1210): 50 µM; IC50 (CCRF-CEM): 35 µM; IC50 (HeLa): 37 µM; EC50 (Human betaherpesvirus 5 [13]): > 220 µM; EC50 (Vaccinia virus): > 50 µM
O=c1[nH]c(=O)n([C@H]2C[C@H](O)[C@@H](CO)O2)cc1-c1cn(-c2ccc([N+](=O)[O-])cc2)nn1	inactive	inactive	inactive	inactive	inactive	inactive	inactive	inactive	inactive	inactive	inactive	inactive	136 µM	240 µM	> 50 µM	> 50 µM	> 50 µM	> 50 µM	> 50 µM	> 50 µM	IC50 (L1210): > 100 µM; IC50 (CCRF-CEM): > 100 µM; IC50 (HeLa): > 100 µM; EC50 (Human betaherpesvirus 5 [13]): > 50 µM; EC50 (Vaccinia virus): > 50 µM
O=c1[nH]c(=O)n([C@H]2C[C@H](O)[C@@H](CO)O2)cc1-c1cn(-c2ccccc2)nn1	inactive	inactive	inactive	inactive	inactive	inactive	inactive	inactive	inactive	inactive	inactive	inactive	270 µM	270 µM	> 50 µM	> 50 µM	> 50 µM	> 270 µM	> 270 µM	> 270 µM	IC50 (L1210): 204 µM; IC50 (CCRF-CEM): 75 µM; IC50 (HeLa): 56 µM; EC50 (Human betaherpesvirus 5 [13]): > 270 µM; EC50 (Vaccinia virus): > 50 µM
O=c1[nH]c(=O)n([C@H]2C[C@H](O)[C@@H](CO)O2)cc1-c1cn(-c2cc(F)cc(F)c2)nn1	inactive	inactive	inactive	inactive	inactive	inactive	inactive	inactive	inactive	inactive	inactive	inactive	36 µM	220 µM	> 220 µM	> 220 µM	> 220 µM	> 50 µM	> 50 µM	> 50 µM	EC50 (Human betaherpesvirus 5 [13]): > 50 µM; EC50 (Vaccinia virus): > 220 µM
O=c1[nH]c(=O)n([C@H]2C[C@H](O)[C@@H](CO)O2)cc1-c1cn(-c2c(F)cccc2F)nn1	inactive	inactive	inactive	inactive	inactive	inactive	inactive	inactive	inactive	inactive	inactive	inactive	1.5 µM	≥ 10 µM	36 µM	31 µM	≥ 50 µM	3.1 µM	6.1 µM	29 µM	IC50 (L1210): 2.9 µM; IC50 (CCRF-CEM): 1.5 µM; IC50 (HeLa): 0.51 µM; EC50 (Human betaherpesvirus 5 [13]): 18 µM; EC50 (Vaccinia virus): 38 µM
